Patent US20190276793A1, “Methods and Apparatus for Regulation of Gene Expression Across a Large-Scale Solid Structure” (Massachusetts Institute of Technology, priority 2018, published 2019)

Tested on: E. coli strain IPTG/GFP
Assay: GFP induction by cured chemical signaling resin in the IPTG/GFP reporter strain
Type: cell-based
Conditions: IPTG 2.0 M, after UV-curing
Source text: In some use cases, this prototype facilitates fluorometric assays of gene expression as follows: Strains with fluorescent protein outputs are constructed. The strains IPTG/GFP, AHL/GFP, and RHA/GFP each express a green fluorescent protein (GFP) under the control of promoters LacI, LuxR, and RhaBAD when induced by the chemicals IPTG, N-acyl homoserine lactone (AHL), Rhamnose (RHA), respectively. For orthogonal AHL and IPTG patterning, the strain AHL/RFP is also cloned to produce a differentiable red fluorescent protein (RFP) under AHL-inducible control. Also, gene constructs using combinatorial promoters (where IPTG.AHL/GFP equated to NAND logic function and IPTG.AHL/GFP equated to AND logic function) were cloned for HLM objects performing spatial patterning from two-input cell logic. These transcriptional regulators may be utilized for multi-signal pattern generation.
In a test of this prototype, different photopolymer resins (with embedded chemical signaling molecules) were created by mixing incremental concentrations and ratios of DMSO-solubilized inducer, IPTG, and uncured resin in low light. To rapidly manufacture test pieces, a VeroClear™ RGD810 tray was printed with 3×3 circular wells (10 mm diameter, 3 mm depth). […]

Structure (SMILES): CC(C)S[C@@H]1O[C@H](CO)[C@H](O)[C@H](O)[C@H]1O [IPTG, Isopropyl β-D-1-thiogalactopyranoside]
- induction in E. coli strain IPTG/GFP: robust induction
